Reference: PubChem BioAssay (NCI)
“And” between values parts separate entries of the source, which are not always exact repeats. Equal values may be shown once.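 Growth conditions: 96-well plates. Treatment: test compound, 48 hours, 5 concentrations. Analysis: linear interpolation between bracketing concentrations; unreached endpoints set to highest concentration. At the GI50, growth is halved. TGI marks complete inhibition of growth.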

Columns and labels:
Experiment in all cases: growth of human tumour cells (NCI), 48 h
KM20L2 colon = system: KM20L2 colon
DMS 114 small cell lung = system: DMS 114 small cell lung
PC-3 prostate = system: PC-3 prostate
MDA-MB-435 = system: MDA-MB-435
HS 578T breast = system: HS 578T breast
MDA-N = system: MDA-N
XF 498 CNS = system: XF 498 CNS
LXFL 529 NSCLC = system: LXFL 529 NSCLC

Row | Compound | TGI (KM20L2 colon) | TGI (DMS 114 small cell lung) | GI50 (PC-3 prostate) | TGI (PC-3 prostate) | GI50 (MDA-MB-435) | TGI (MDA-MB-435) | GI50 (HS 578T breast) | TGI (HS 578T breast) | TGI (MDA-N) | GI50 (MDA-N) | TGI (XF 498 CNS) | TGI (LXFL 529 NSCLC)
1 | COc1ccc(/C=C/C(=O)c2sc(N)nc2C)cc1 | > 100 µM | > 100 µM |  |  |  |  |  |  |  |  |  | 
2 | COC1=C(OC)C(=O)C(/C=C(\C)C(=O)O)=C(C)C1=O |  |  | > 100 µM | > 100 µM | > 100 µM | > 100 µM | > 100 µM | > 100 µM |  |  |  | 
3 | Fc1ccc(-c2nc(-c3nc4ccc(Cl)cc4[nH]3)cc3c2[nH]c2ccccc23)cc1 |  |  | 2.09 µM | 6.95 µM | 3.59 µM | 14.3 µM | 3.38 µM | 57 µM |  |  |  | 
4 | Nc1nc(-c2ccccc2)c(-c2ccccc2)c(-c2nc(N)nc(-c3ccccc3)c2-c2ccccc2)n1 |  |  |  | > 100 µM |  | > 100 µM |  | > 100 µM | > 100 µM |  |  | 
5 | CC1=C(N2CC2)C(=O)C(CO)=C(N2CC2)C1=O |  |  | 0.0159 µM and < 0.0213 µM | 0.0791 µM | 0.0386 µM and 0.0393 µM | 0.169 µM and 0.151 µM | 0.139 µM | 0.352 µM and 1.43 µM | 0.138 µM and 0.106 µM | 0.0284 µM and 0.0259 µM |  | 
6 | Clc1ccc(-c2nc3c(-c4ccc(Cl)cc4)nc(-c4ccccc4)cn3c2-c2ccc(Cl)cc2)cc1 |  |  | > 50 µM | > 50 µM | > 50 µM | > 50 µM | 10.8 µM | > 50 µM |  |  |  | 
7 | NC(=O)c1ccccc1NC(=O)C(=O)C(C(=O)c1ccc2ccccc2c1)C1OC(=O)c2ccccc21 (stereo not given) | 81.4 µM |  |  |  |  |  |  |  |  |  | 12.8 µM | 21.9 µM
8 | COc1cc(CNC(=O)/C=C/C=C/c2ccc3c(c2)OCO3)ccc1OCc1cn(-c2ccc(Cl)c(Cl)c2)nn1 |  |  | 1.48 µM | 3.47 µM | 2 µM | 4.75 µM | 2.53 µM | 8.56 µM |  |  |  | 
9 | COc1ccc(Nc2c3ccccc3nc3c2c2ccccc2n3C)cc1 |  |  | 11.1 µM | 54.2 µM | 30.5 µM | > 100 µM | 46.4 µM | > 100 µM |  |  |  | 
10 | N#Cc1ccc(Oc2nccc(-c3c(-c4ccc(F)cc4)ncn3C3CCNCC3)n2)cc1 |  |  | 13.9 µM | > 25 µM | > 15.1 µM | > 25 µM | > 25 µM | > 25 µM |  |  |  | 
11 | Cc1c2ccccc2c(C)c2c3c(ccc12)C(=O)C=CC3=O | > 100 µM | 25.8 µM |  |  |  |  |  |  |  |  | 31.6 µM | 31.5 µM
12 | CC(=O)OC1C=CC2CCN3C(=O)c4cc5c(cc4[C@H]1C23)OCO5 (stereo not given in full) | > 100 µM | > 100 µM |  |  |  |  |  |  |  |  |  | > 100 µM
13 | c1cncc(CNc2ccccc2-c2nnc(Nc3ccc4c(c3)OCO4)o2)c1 |  |  | 0.0898 µM | > 76.9 µM |  |  | 0.0974 µM | > 100 µM |  |  |  | 
14 | COC(=O)/C(C#N)=C\N1CCN(C(=O)c2ccco2)C1=S |  |  | 6.82 µM | 63.4 µM | 6.82 µM | 46.5 µM |  |  |  |  |  | 
15 | COc1cccc(Nc2nc(NNC(=O)Cc3ccccc3)nc(NNC(=O)c3ccncc3)n2)c1 |  |  |  | > 100 µM |  | > 100 µM | > 100 µM | > 100 µM | > 100 µM | > 100 µM |  | 
16 | CCN1CCC[C@H]1c1cc(O)c2c(c1OC)C[C@H]1C[C@H]3[C@H](N)C(=O)C(C(N)=O)=C(O)[C@@]3(O)C(=O)C1=C2O |  |  | 0.151 µM | 8.76 µM | 0.0917 µM | 2.34 µM | 0.0495 µM | 1.12 µM |  |  |  | 
